In patent publication US12441762B2, “Hepatitis c virus NS3/4A protease inhibitors” (priority 2019, dated 2025):

What was measured:
[1] = target: T1, HCV NS3/4A protease D168A variant (Hepatitis C virus genotype 1a, UniProt P27958, C1185S/D1194A); test: biochemical; format: biochemical
T1 construct: His-tag (cleaved yes); made in house; host or cells: Escherichia coli BL21(DE3), PET28a vector
Protocol: (§1) The HCV GT1a NS3/4A protease gene described in the Bristol Myers Squibb patent was synthesized by GenScript and cloned into a PET28a expression vector. Cys159 was mutated to a serine residue to prevent disulfide bond formation and facilitate crystallization. The D168A gene was engineered using the site-directed mutagenesis protocol from Stratagene. Protein expression and purification were carried out as previously described.
(§2) Km constants for GT1 and D168A protease were previously determined. […] Inner filter effect corrections were applied to the initial velocities (Vo) at each substrate concentration. Vo versus substrate concentration graphs were globally fit to the Michaelis-Menten equation to obtain the Km value.
(§3) For each assay, 2 nM of NS3/4A protease (GT1a and D168A) was pre-incubated at room temperature for 1 h with increasing concentration of inhibitors in assay buffer (50 mM Tris, 5% glycerol, 10 mM DTT, 0.6 mM LDAO, and 4% dimethyl sulfoxide, pH 7.5). Inhibition assays were performed in non-binding surface 96-well black half-area plates (Corning) in a reaction volume of 60 μL. […] Three independent data sets were collected for each inhibitor with each protease construct.

[2] = target: T2, wild-type HCV NS3/4A protease (GT1a) (Hepatitis C virus genotype 1a, UniProt P27958, C1185S); test: biochemical; format: biochemical
T2 construct: His-tag (cleaved yes); made in house; host or cells: Escherichia coli BL21(DE3), PET28a vector
Protocol: as §1, §2, §3

T2 sequence (P27958 1027-1208 C1185S): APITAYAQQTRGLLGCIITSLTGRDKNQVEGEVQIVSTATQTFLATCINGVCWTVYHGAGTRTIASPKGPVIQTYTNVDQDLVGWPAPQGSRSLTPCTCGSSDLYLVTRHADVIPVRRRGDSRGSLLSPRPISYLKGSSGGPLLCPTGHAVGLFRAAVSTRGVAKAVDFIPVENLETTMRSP
T1 sequence (P27958 1027-1208 C1185S/D1194A): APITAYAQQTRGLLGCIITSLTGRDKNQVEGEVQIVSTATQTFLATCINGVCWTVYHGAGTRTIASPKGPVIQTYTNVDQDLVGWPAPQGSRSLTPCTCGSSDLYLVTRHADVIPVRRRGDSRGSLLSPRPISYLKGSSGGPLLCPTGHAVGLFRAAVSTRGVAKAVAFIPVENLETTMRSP

COc1ccc2nc(C(F)(F)F)c(O[C@@H]3C[C@H]4C(=O)N[C@]5(C(=O)NS(=O)(=O)C6(C)CC6)C[C@H]5/C=C\CCCCC[C@H](NC(=O)O[C@H](C)C(C)C)C(=O)N4C3)nc2c1 [NR01-121, (R)-3-Methylbutan-2-yl ((2R,6S,13aS,14aR,16aS,Z)-2-((7-methoxy-3-(trifluoromethyl)quinoxalin-2-yl)oxy)-14a-(((1-methylcyclopropyl)sulfonyl)carbamoyl)-5,16-dioxo-1,2,3,5,6,7,8,9,10,11,13a,14,14a,15,16,16a-hexadecahydrocyclopropa[e]pyrrolo[1,2-a][1,4]diazacyclopentadecin-6-yl)carbamate]
Ki [1]: 10.4 ± 0.9 nM | Ki [2]: 2.96 ± 0.22 nM

COc1ccc2nc(C)c(O[C@@H]3C[C@H]4C(=O)N[C@]5(C(=O)NS(=O)(=O)C6(C)CC6)C[C@H]5/C=C\CCCCC[C@H](NC(=O)OC(C)(C)C(F)(F)F)C(=O)N4C3)nc2c1 [AJ-71, 1,1,1-Trifluoro-2-methylpropan-2-yl ((2R,6S,13aS,14aR,16aS,Z)-2-((7-methoxy-3-methylquinoxalin-2-yl)oxy)-14a-(((1-methylcyclopropyl)sulfonyl)carbamoyl)-5,16-dioxo-1,2,3,5,6,7,8,9,10,11,13a,14,14a,15,16,16a-hexadecahydrocyclopropa[e]pyrrolo[1,2-a][1,4]diazacyclopentadecin-6-yl)carbamate]
Ki [1]: 39 ± 2.9 nM | Ki [2]: 2.56 ± 0.44 nM

COc1ccc2nc(C)c(O[C@@H]3C[C@H]4C(=O)N[C@]5(C(=O)NS(=O)(=O)C6(C)CC6)C[C@H]5/C=C\CCCCC[C@H](NC(=O)OC5CCC5)C(=O)N4C3)nc2c1 [NR01-127, Cyclobutyl ((2R,6S,13aS,14aR,16aS,Z)-2-((7-methoxy-3-methylquinoxalin-2-yl)oxy)-14a-(((1-methylcyclopropyl)sulfonyl)carbamoyl)-5,16-dioxo-1,2,3,5,6,7,8,9,10,11,13a,14,14a,15,16,16a-hexadecahydrocyclopropa[e]pyrrolo[1,2-a][1,4]diazacyclopentadecin-6-yl)carbamate]
Ki [1]: 52.4 ± 9 nM | Ki [2]: 0.3 ± 0.2 nM

COc1ccc2nc(C)c(O[C@@H]3C[C@H]4C(=O)N[C@]5(C(=O)NS(=O)(=O)C6(C)CC6)C[C@H]5/C=C\CCCCC[C@H](NC(=O)O[C@@H](C)C(F)(F)F)C(=O)N4C3)nc2c1 [NR02-23, (S)-1,1,1-Trifluoropropan-2-yl ((2R,6S,13aS,14aR,16aS,Z)-2-((7-methoxy-3-methylquinoxalin-2-yl)oxy)-14a-(((1-methylcyclopropyl)sulfonyl)carbamoyl)-5,16-dioxo-1,2,3,5,6,7,8,9,10,11,13a,14,14a,15,16,16a-hexadecahydrocyclopropa[e]pyrrolo [1,2-a][1,4]diazacyclopentadecin-6-yl)carbamate]
Ki [1]: 40 ± 6 nM | Ki [2]: 0.74 ± 0.2 nM

COc1ccc2nc(C)c(O[C@@H]3C[C@H]4C(=O)N[C@]5(C(=O)NS(=O)(=O)C6(C)CC6)C[C@H]5/C=C\CCCCC[C@H](NC(=O)OCC5(C(F)(F)F)CC5)C(=O)N4C3)nc2c1 [NR02-49, (1-(Trifluoromethyl)cyclopropyl)methyl ((2R,6S,13aS,14aR,16aS,Z)-2-((7-methoxy-3-methylquinoxalin-2-yl)oxy)-14a-(((1-methylcyclopropyl)sulfonyl)carbamoyl)-5,16-dioxo-1,2,3,5,6,7,8,9,10,11,13a,14,14a,15,16,16a-hexadecahydrocyclopropa[e]pyrrolo[1,2-a][1,4]diazacyclopentadecin-6-yl)carbamate]
Ki [1]: 27.4 ± 1.2 nM | Ki [2]: 0.9 ± 0.1 nM

COc1ccc2nc(C)c(O[C@@H]3C[C@H]4C(=O)N[C@]5(C(=O)NS(=O)(=O)C6(C)CC6)C[C@H]5/C=C\CCCCC[C@H](NC(=O)O[C@H](C)C(C)C)C(=O)N4C3)nc2c1 [NR01-119, (R)-3-Methylbutan-2-yl ((2R,6S,13aS,14aR,16aS,Z)-2-((7-methoxy-3-methylquinoxalin-2-yl)oxy)-14a-(((1-methylcyclopropyl)sulfonyl)carbamoyl)-5,16-dioxo-1,2,3,5,6,7,8,9,10,11,13a,14,14a,15,16,16a-hexadecahydrocyclopropa[e]pyrrolo[1,2-a][1,4]diazacyclopentadecin-6-yl)carbamate]
Ki [1]: 23.9 ± 3.5 nM | Ki [2]: 1.52 ± 0.02 nM

CCC(CC)OC(=O)N[C@H]1CCCCC/C=C\[C@@H]2C[C@@]2(C(=O)NS(=O)(=O)C2(C)CC2)NC(=O)[C@@H]2C[C@@H](Oc3nc4cc(OC)ccc4nc3C(F)(F)F)CN2C1=O [NR02-52, Pentan-3-yl ((2R,6S,13aS,14aR,16aS,Z)-2-((7-methoxy-3-(trifluoromethyl)quinoxalin-2-yl)oxy)-14a-(((1-methylcyclopropyl)sulfonyl)carbamoyl)-5,16-dioxo-1,2,3,5,6,7,8,9,10,11,13a,14,14a,15,16,16a-hexadecahydrocyclopropa[e]pyrrolo[1,2-a][1,4]diazacyclopentadecin-6-yl)carbamate]
Ki [1]: 20.9 ± 2.1 nM | Ki [2]: 4.6 ± 0.66 nM

COc1ccc2nc(C(F)(F)F)c(O[C@@H]3C[C@H]4C(=O)N[C@]5(C(=O)NS(=O)(=O)C6(C)CC6)C[C@H]5/C=C\CCCCC[C@H](NC(=O)OC5(C)CC5)C(=O)N4C3)nc2c1 [NR02-31, 1-Methylcyclopropyl ((2R,6S,13aS,14aR,16aS,Z)-2-((7-methoxy-3-(trifluoromethyl)quinoxalin-2-yl)oxy)-14a-(((1-methylcyclopropyl)sulfonyl)carbamoyl)-5,16-dioxo-1,2,3,5,6,7,8,9,10,11,13a,14,14a,15,16,16a-hexadecahydrocyclopropa[e]pyrrolo[1,2-a][1,4]diazacyclopentadecin-6-yl)carbamate]
Ki [1]: 41.3 ± 7.3 nM | Ki [2]: 11.4 ± 0.84 nM

COc1ccc2nc(C)c(O[C@@H]3C[C@H]4C(=O)N[C@]5(C(=O)NS(=O)(=O)C6(C)CC6)C[C@H]5/C=C\CCCCC[C@H](NC(=O)OC5CC(F)(F)C5)C(=O)N4C3)nc2c1 [NR01-149, 3,3-Difluorocyclobutyl ((2R,6S,13aS,14aR,16aS,Z)-2-((7-methoxy-3-methylquinoxalin-2-yl)oxy)-14a-(((1-methylcyclopropyl)sulfonyl)carbamoyl)-5,16-dioxo-1,2,3,5,6,7,8,9,10,11,13a,14,14a,15,16,16a-hexadecahydrocyclopropa[e]pyrrolo[1,2-a][1,4]diazacyclopentadecin-6-yl)carbamate]
Ki [1]: 26 ± 1 nM | Ki [2]: 0.62 ± 0.3 nM

COc1ccc2nc(C(F)(F)F)c(O[C@@H]3C[C@H]4C(=O)N[C@]5(C(=O)NS(=O)(=O)C6(C)CC6)C[C@H]5/C=C\CCCCC[C@H](NC(=O)O[C@H](C)C5CC5)C(=O)N4C3)nc2c1 [NR02-34, (R)-1-Cyclopropylethyl ((2R,6S,13aS,14aR,16aS,Z)-2-((7-methoxy-3-(trifluoromethyl)quinoxalin-2-yl)oxy)-14a-(((1-methylcyclopropyl)sulfonyl)carbamoyl)-5,16-dioxo-1,2,3,5,6,7,8,9,10,11,13a,14,14a,15,16,16a-hexadecahydrocyclopropa[e]pyrrolo[1,2-a][1,4]diazacyclopentadecin-6-yl)carbamate]
Ki [1]: 26.2 ± 0.6 nM | Ki [2]: 11.8 ± 1.4 nM

COc1ccc2nc(C)c(O[C@@H]3C[C@H]4C(=O)N[C@]5(C(=O)NS(=O)(=O)C6(C)CC6)C[C@H]5/C=C\CCCCC[C@H](NC(=O)OCC5(C)CC5)C(=O)N4C3)nc2c1 [NR01-115, (1-Methylcyclopropyl)methyl ((2R,6S,13aS,14aR,16aS,Z)-2-((7-methoxy-3-methylquinoxalin-2-yl)oxy)-14a-(((1-methylcyclopropyl)sulfonyl)carbamoyl)-5,16-dioxo-1,2,3,5,6,7,8,9,10,11,13a,14,14a,15,16,16a-hexadecahydrocyclopropa[e]pyrrolo[1,2-a][1,4]diazacyclopentadecin-6-yl)carbamate]
Ki [1]: 21.6 ± 1.7 nM | Ki [2]: 0.65 ± 0.2 nM

COc1ccc2nc(C(F)(F)F)c(O[C@@H]3C[C@H]4C(=O)N[C@]5(C(=O)NS(=O)(=O)C6(C)CC6)C[C@H]5/C=C\CCCCC[C@H](NC(=O)OCC(C)C)C(=O)N4C3)nc2c1 [NR02-41, Isobutyl ((2R,6S,13aS,14aR,16aS,Z)-2-((7-methoxy-3-(trifluoromethyl)quinoxalin-2-yl)oxy)-14a-(((1-methylcyclopropyl)sulfonyl)carbamoyl)-5,16-dioxo-1,2,3,5,6,7,8,9,10,11,13a,14,14a,15,16,16a-hexadecahydrocyclopropa[e]pyrrolo[1,2-a][1,4]diazacyclopentadecin-6-yl)carbamate]
Ki [1]: 14.9 ± 1.4 nM | Ki [2]: 4.01 ± 0.46 nM

COc1ccc2nc(C)c(O[C@@H]3C[C@H]4C(=O)N[C@]5(C(=O)NS(=O)(=O)C6(C)CC6)C[C@H]5/C=C\CCCCC[C@H](NC(=O)O[C@H](C)C5CC5)C(=O)N4C3)nc2c1 [NR02-26, (R)-1-Cyclopropylethyl ((2R,6S,13aS,14aR,16aS,Z)-2-((7-methoxy-3-methylquinoxalin-2-yl)oxy)-14a-(((1-methylcyclopropyl)sulfonyl)carbamoyl)-5,16-dioxo-1,2,3,5,6,7,8,9,10,11,13a,14,14a,15,16,16a-hexadecahydrocyclopropa[e]pyrrolo[1,2-a][1,4]diazacyclopentadecin-6-yl)carbamate]
Ki [1]: 23.5 ± 1.3 nM | Ki [2]: 1.5 ± 0.06 nM
